Data as given in PMC11167047 (Cell Death Discovery, 2024).

Tests used:
Experiment in all cases: kinome screen (33PanQinase)
Assay type in all cases: biochemical
BRSK2 = biological target: T1, BRSK2 (Homo sapiens, UniProt Q8IWQ3)
T1 construct: purchased Reaction Biology Europe GmbH (formerly ProQinase)
T1 sequence (Q8IWQ3 1-736): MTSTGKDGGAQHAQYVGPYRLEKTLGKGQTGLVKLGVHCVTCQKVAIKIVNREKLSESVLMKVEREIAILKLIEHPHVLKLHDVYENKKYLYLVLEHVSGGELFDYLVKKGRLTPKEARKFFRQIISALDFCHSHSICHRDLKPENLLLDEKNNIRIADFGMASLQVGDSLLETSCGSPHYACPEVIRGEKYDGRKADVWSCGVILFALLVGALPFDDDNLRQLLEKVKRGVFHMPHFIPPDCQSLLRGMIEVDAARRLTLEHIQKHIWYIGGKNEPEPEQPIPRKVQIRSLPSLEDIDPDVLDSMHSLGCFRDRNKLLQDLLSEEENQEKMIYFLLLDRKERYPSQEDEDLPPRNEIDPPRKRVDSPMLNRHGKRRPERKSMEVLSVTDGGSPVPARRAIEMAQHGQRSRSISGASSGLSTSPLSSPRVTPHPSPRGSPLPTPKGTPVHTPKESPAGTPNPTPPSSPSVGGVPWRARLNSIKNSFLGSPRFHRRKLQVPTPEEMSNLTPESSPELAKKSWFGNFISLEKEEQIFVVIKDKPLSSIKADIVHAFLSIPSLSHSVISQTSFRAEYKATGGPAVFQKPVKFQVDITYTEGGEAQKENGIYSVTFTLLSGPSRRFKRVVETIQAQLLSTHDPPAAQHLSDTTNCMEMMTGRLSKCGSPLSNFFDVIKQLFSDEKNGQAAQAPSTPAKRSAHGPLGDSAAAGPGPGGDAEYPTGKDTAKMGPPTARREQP
Method: (§1) The Kinome Screening was performed by Reaction Biology Europe GmbH (http://reactionbiology.com; Freiburg i. Br., Germany).

CDK9/CycT1 = biological target: T2, CDK9/CycT1 (Homo sapiens, UniProt P50750)
T2 construct: purchased Reaction Biology Europe GmbH (formerly ProQinase)
Method: as §1

CK1γ2 = biological target: T3, CK1γ2 (Homo sapiens, UniProt P78368)
T3 construct: purchased Reaction Biology Europe GmbH (formerly ProQinase)
Method: as §1

EPHA7 = biological target: T4, EPHA7 (Homo sapiens, UniProt Q15375)
T4 construct: purchased Reaction Biology Europe GmbH (formerly ProQinase)
Method: as §1

ERK2 = biological target: T5, ERK2 (Homo sapiens, UniProt P28482)
T5 construct: purchased Reaction Biology Europe GmbH (formerly ProQinase)
Method: as §1

GRK3 = biological target: T6, GRK3 (Homo sapiens, UniProt P35626)
T6 construct: purchased Reaction Biology Europe GmbH (formerly ProQinase)
T6 sequence (P35626 1-688): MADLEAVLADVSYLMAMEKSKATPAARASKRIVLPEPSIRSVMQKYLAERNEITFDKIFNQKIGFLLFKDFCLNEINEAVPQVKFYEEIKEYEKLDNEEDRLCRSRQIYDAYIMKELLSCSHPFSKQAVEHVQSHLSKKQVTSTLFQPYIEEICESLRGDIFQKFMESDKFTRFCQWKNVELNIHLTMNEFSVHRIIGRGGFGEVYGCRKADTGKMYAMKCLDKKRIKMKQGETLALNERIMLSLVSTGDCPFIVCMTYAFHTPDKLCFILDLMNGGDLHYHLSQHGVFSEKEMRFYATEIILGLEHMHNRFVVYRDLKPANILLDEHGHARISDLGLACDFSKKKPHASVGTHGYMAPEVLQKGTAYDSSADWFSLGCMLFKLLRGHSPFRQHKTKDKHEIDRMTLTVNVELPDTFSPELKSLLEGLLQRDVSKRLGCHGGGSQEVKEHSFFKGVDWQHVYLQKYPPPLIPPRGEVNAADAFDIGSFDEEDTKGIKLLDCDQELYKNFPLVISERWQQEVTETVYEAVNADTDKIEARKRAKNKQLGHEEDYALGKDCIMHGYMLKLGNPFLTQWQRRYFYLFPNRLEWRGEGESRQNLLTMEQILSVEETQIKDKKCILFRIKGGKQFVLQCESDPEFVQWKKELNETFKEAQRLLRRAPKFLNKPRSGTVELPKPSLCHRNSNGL
Method: as §1

GSK3α = biological target: T7, GSK3α (Homo sapiens, UniProt P49840)
T7 construct: purchased Reaction Biology Europe GmbH (formerly ProQinase)
Method: as §1

RAF1 YDYD = biological target: T8, RAF1 YDYD (Homo sapiens, UniProt P04049, Y340D/Y341D)
T8 construct: purchased Reaction Biology Europe GmbH (formerly ProQinase)
Method: as §1

SYK = biological target: T9, SYK (Homo sapiens, UniProt P43405)
T9 construct: purchased Reaction Biology Europe GmbH (formerly ProQinase)
Method: as §1

TGFBR2 = biological target: T10, TGFBR2 (Homo sapiens, UniProt P37173)
T10 construct: purchased Reaction Biology Europe GmbH (formerly ProQinase)
Method: as §1

VRK1 = biological target: T11, VRK1 (Homo sapiens, UniProt Q99986)
T11 construct: purchased Reaction Biology Europe GmbH (formerly ProQinase)
T11 sequence (Q99986 1-396): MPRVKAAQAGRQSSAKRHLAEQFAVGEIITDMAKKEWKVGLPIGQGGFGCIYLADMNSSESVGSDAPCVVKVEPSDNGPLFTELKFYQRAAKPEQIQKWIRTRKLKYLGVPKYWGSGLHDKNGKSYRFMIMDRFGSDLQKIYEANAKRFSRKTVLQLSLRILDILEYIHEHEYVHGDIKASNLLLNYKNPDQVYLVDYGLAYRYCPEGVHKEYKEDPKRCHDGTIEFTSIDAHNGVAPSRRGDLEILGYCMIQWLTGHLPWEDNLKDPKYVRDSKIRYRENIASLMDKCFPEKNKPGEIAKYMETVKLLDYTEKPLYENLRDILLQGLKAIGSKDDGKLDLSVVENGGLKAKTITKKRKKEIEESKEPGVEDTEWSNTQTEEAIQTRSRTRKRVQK
Method: as §1

T2 sequence (P50750 whole entry): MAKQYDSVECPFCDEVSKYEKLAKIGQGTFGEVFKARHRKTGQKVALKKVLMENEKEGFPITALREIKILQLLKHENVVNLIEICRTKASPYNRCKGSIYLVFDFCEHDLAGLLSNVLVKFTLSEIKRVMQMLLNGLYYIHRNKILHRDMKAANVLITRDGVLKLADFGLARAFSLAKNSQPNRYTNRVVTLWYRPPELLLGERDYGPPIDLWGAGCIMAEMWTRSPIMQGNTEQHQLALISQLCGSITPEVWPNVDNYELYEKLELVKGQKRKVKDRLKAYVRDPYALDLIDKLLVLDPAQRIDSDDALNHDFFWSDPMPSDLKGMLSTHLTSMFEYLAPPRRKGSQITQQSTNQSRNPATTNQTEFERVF
T2 sequence (O60563 whole entry partner): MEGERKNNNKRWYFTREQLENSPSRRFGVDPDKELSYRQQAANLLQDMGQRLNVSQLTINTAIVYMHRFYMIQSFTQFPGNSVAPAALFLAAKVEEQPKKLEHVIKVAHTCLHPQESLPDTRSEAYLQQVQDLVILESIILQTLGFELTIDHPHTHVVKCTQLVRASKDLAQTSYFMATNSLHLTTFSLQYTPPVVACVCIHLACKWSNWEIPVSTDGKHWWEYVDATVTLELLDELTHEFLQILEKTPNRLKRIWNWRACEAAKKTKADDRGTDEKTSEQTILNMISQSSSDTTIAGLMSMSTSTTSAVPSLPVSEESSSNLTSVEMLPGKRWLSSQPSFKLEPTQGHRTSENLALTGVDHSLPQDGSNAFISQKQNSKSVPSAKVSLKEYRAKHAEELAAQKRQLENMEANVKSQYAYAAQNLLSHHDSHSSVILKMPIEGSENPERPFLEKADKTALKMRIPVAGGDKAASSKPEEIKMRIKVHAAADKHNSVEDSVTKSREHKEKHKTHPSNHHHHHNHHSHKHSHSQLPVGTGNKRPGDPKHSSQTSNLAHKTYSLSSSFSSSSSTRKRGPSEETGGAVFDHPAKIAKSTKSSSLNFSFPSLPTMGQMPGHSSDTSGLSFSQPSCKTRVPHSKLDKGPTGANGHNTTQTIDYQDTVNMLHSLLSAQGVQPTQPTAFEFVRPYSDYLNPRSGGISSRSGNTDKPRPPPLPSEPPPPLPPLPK
T10 sequence (P37173 23-567): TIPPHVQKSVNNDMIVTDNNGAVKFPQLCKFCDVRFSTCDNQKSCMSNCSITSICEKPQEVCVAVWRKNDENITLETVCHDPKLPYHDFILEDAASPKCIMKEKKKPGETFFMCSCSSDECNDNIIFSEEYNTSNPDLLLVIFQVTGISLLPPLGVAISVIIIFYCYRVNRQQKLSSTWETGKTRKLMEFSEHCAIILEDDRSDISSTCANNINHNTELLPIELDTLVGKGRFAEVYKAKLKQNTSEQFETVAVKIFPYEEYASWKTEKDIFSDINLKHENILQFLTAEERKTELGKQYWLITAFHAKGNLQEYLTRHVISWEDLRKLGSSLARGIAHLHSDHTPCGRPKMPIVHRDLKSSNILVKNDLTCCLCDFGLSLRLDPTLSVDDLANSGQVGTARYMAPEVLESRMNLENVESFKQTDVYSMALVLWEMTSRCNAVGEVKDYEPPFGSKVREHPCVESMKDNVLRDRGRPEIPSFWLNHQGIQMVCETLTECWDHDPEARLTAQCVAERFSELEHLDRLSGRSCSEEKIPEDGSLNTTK
T8 sequence (P04049 306-648 Y340D/Y341D limits assumed): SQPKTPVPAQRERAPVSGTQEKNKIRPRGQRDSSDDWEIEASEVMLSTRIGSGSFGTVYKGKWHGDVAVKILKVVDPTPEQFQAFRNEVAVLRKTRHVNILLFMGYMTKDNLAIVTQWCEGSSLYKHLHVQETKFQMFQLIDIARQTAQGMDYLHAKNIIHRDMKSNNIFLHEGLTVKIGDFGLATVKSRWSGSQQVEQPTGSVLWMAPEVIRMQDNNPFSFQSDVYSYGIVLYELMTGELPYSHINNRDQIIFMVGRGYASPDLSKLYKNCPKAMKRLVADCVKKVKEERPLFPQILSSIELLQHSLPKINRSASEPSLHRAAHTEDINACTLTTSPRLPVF
T4 sequence (Q15375 28-998): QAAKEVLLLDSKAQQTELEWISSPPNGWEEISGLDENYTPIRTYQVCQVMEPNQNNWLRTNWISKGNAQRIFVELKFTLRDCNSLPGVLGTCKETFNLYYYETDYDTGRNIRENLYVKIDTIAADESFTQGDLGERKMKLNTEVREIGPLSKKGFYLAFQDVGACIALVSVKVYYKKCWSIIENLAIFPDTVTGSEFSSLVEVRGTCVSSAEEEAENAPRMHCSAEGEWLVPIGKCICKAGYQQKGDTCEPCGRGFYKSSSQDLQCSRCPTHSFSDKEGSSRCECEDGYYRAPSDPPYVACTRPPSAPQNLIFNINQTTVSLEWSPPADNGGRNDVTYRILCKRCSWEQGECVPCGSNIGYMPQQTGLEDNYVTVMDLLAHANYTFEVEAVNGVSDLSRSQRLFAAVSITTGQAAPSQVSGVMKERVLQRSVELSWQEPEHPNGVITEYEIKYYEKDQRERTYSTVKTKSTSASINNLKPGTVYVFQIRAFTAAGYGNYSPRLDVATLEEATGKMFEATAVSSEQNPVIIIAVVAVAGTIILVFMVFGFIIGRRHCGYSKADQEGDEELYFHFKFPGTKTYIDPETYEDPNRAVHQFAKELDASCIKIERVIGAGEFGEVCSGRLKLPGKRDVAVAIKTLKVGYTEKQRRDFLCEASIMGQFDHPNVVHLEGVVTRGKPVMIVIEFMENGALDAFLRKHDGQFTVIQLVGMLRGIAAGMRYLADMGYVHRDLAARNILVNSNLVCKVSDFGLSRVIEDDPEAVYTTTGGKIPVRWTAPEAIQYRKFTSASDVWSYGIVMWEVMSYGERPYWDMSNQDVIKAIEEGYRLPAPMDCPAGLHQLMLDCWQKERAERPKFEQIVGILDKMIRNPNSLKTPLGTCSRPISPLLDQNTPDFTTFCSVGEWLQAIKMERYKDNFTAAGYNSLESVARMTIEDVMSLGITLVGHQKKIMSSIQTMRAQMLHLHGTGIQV
T5 sequence (P28482 whole entry): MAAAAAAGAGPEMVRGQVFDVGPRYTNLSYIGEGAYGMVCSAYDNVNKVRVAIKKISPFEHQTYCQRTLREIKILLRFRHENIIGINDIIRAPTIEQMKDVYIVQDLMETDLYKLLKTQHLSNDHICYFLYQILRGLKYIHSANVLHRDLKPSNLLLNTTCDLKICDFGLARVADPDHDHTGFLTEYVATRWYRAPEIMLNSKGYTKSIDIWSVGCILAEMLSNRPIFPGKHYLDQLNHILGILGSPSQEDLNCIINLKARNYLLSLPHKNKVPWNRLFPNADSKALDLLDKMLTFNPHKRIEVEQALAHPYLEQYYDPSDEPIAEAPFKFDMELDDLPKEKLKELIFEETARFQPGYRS
T7 sequence (P49840 whole entry): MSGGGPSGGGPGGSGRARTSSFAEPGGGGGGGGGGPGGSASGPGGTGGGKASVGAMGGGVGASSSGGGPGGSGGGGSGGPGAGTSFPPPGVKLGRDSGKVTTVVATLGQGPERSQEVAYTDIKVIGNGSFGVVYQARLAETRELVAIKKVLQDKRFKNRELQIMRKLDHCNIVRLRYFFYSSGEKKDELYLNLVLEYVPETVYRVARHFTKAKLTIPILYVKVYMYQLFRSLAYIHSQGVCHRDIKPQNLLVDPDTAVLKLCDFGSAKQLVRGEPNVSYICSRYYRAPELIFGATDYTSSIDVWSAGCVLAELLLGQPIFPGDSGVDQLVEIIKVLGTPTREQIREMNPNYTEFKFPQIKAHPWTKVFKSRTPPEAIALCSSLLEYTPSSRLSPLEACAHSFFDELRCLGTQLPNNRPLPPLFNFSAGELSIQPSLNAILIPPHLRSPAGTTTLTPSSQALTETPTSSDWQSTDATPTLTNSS
T3 sequence (P78368 whole entry): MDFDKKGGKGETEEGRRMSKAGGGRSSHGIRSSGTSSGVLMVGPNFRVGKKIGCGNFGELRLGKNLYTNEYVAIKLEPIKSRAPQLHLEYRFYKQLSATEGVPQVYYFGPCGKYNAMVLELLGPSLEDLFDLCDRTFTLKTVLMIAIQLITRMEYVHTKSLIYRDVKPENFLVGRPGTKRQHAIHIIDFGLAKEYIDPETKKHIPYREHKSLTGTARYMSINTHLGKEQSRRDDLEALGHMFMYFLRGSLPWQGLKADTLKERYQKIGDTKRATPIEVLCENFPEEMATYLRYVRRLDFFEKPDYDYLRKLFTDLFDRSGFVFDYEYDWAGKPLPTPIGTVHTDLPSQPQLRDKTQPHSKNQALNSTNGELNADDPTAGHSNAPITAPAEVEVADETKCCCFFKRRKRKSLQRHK

SMILES: c1ccc(CNc2cc(-c3c[nH]c4ncccc34)ccn2)cc1 [meriolin 36]
- residual kinase activity (BRSK2; 0.3 µM): 112 % of control
- residual kinase activity (BRSK2; 3 µM): 61 % of control
- residual kinase activity (CDK9/CycT1; 0.3 µM): 1 % of control
- residual kinase activity (CDK9/CycT1; 3 µM): 0 % of control
- residual kinase activity (CK1γ2; 0.3 µM): 19 % of control
- residual kinase activity (CK1γ2; 3 µM): 3 % of control
- residual kinase activity (EPHA7; 0.3 µM): 131 % of control
- residual kinase activity (EPHA7; 3 µM): 93 % of control
- residual kinase activity (ERK2; 0.3 µM): 79 % of control
- residual kinase activity (ERK2; 3 µM): 30 % of control
- residual kinase activity (GRK3; 0.3 µM): 98 % of control
- residual kinase activity (GRK3; 3 µM): 74 % of control
- residual kinase activity (GSK3α; 0.3 µM): 41 % of control
- residual kinase activity (GSK3α; 3 µM): 7 % of control
- residual kinase activity (RAF1 YDYD; 0.3 µM): 67 % of control
- residual kinase activity (RAF1 YDYD; 3 µM): 67 % of control
- residual kinase activity (SYK; 0.3 µM): 90 % of control
- residual kinase activity (SYK; 3 µM): 64 % of control
- residual kinase activity (TGFBR2; 0.3 µM): 72 % of control
- residual kinase activity (TGFBR2; 3 µM): 24 % of control
- residual kinase activity (VRK1; 0.3 µM): 104 % of control
- residual kinase activity (VRK1; 3 µM): 61 % of control

SMILES: COc1ccnc2[nH]cc(-c3cc(N)nc(N)c3)c12 [meriolin 16]
- residual kinase activity (BRSK2; 0.03 µM): 111 % of control
- residual kinase activity (BRSK2; 0.3 µM): 92 % of control
- residual kinase activity (CDK9/CycT1; 0.03 µM): 13 % of control
- residual kinase activity (CDK9/CycT1; 0.3 µM): 2 % of control
- residual kinase activity (CK1γ2; 0.03 µM): 86 % of control
- residual kinase activity (CK1γ2; 0.3 µM): 30 % of control
- residual kinase activity (EPHA7; 0.03 µM): 122 % of control
- residual kinase activity (EPHA7; 0.3 µM): 107 % of control
- residual kinase activity (ERK2; 0.03 µM): 103 % of control
- residual kinase activity (ERK2; 0.3 µM): 87 % of control
- residual kinase activity (GRK3; 0.03 µM): 111 % of control
- residual kinase activity (GRK3; 0.3 µM): 107 % of control
- residual kinase activity (GSK3α; 0.03 µM): 99 % of control
- residual kinase activity (GSK3α; 0.3 µM): 93 % of control
- residual kinase activity (RAF1 YDYD; 0.03 µM): 77 % of control
- residual kinase activity (RAF1 YDYD; 0.3 µM): 96 % of control
- residual kinase activity (SYK; 0.03 µM): 93 % of control
- residual kinase activity (SYK; 0.3 µM): 84 % of control
- residual kinase activity (TGFBR2; 0.03 µM): 109 % of control
- residual kinase activity (TGFBR2; 0.3 µM): 85 % of control
- residual kinase activity (VRK1; 0.03 µM): 114 % of control
- residual kinase activity (VRK1; 0.3 µM): 108 % of control
